Test system: muscle injury model rats (incised masseter muscles on both sides)
Test: Electrophysiological experiment (masseter EMG, Lissajous pattern), Example 1
Format: in vivo, Jcl:SD rats
Details: 1 week postoperatively
Description: Incisions were made in masseter muscles on both sides in Jcl:SD rats (10 weeks old). Immediately after muscle incision, 1 mL each of the SV peptide (20 ng/mL) was intramuscularly administered into several sites surrounding the cut surfaces. The incision on each side was made along a straight line connecting the lateral angle of the eye and the mandibular angle, extending in depth from the fascia on the skin side to the lateral periosteum on the mandibular ramus. The cut surfaces were subjected to electrocoagulation with an electric scalpel for the arrest of bleeding (see FIG. 1).
This experiment was performed on rats subjected to incision of masseter muscles on both sides and subsequent administration of the SV peptide into the incised left masseter muscle and of PBS into the incised right masseter muscle. Bipolar needle electrodes were retained in the masseter muscles on both sides, and myogenic potential signals received through connectors fixed to both sides of the parietal bone were monitored. Electromyographic (EMG) data were recorded preoperatively and 1 week postoperatively. Generally, in the electromyogram of masseter muscles recorded during food ingestion, the cutting phase and the grinding phase in the masticatory movement show different waveforms. […]
Lissajous pattern (FIG. 3). […] Based on this, the chewing side preference was determined.

SVVYGLR [SV peptide]
chewing side preference (SV peptide into left, PBS into right masseter muscle): left-side chewing preference was seen postoperatively
mean myogenic potential of the left masseter muscle during left-side chewing (left = SV peptide side, right = PBS side): reduced postoperatively, but the degree of the reduction was smaller than that in the mean myogenic potential of the right masseter muscle

Reference: patent US11077167B2, “Agent for promoting skeletal muscle injury repair” (Osaka University, priority 2017, dated 2021)
